Data from patent US10183033B2, “Triptolide prodrugs” (priority 2009, dated 2019).
Structures can show the parent of a compound that is named as a salt. Where two headings read alike, the source gives them in different places.

Experiments:
[1] = tested on: alkaline phosphatase (from bovine intestinal mucosa, Type VII-S); assay: In vitro enzymatic conversion (hydrolysis) by alkaline phosphatase; assay type: in vitro ADME; conditions: alkaline phosphatase in glycine buffer (pH 9.8), FIG. 3
Protocol: (§1) Compound 1 is converted into the active triptolide form by action of the enzyme alkaline phosphatase. An in vitro experiment to study the bioconversion of the triptolide prodrug compound of the invention was performed. In vitro bioconversion was simulated using alkaline phosphatase (from bovine intestinal mucosa, Type VII-S available from Sigma-Aldrich (St. Louis, Mo.) in glycine buffer (pH 9.8).
(§2) The first order degradation constant was calculated by fitting the remaining concentration versus the incubation time. The degradation half-life (t½) of compound 1 was determined to be 2 minutes.

alkaline phosphatase = assay: as above; assay type: in vitro ADME, bovine; conditions: bovine
Protocol: as §1, §2

SkChA-1 cells = assay: Subcutaneous mouse model of cholangiocarcinoma; assay type: in vivo, mice; conditions: 0.3 mg/kg i.p. BID for 25 days; FIG. 17
Protocol: SkChA-1 cells (5×10^5) were suspended in matrigel and injected subcutaneously into the left flank of 4-6 week old female nude mice. Seven days post-cell implantation, mice were injected intraperitoneally with 0.3 mg/kg of compound 1 BID for 25 days. Treatment was stopped at this point, and mice sacrificed. Tumor samples, if any, were harvested from these mice, and tumor weight and volume measured. If tumor burden exceeded University of Minnesota animal care guidelines, mice were sacrificed and their tumors harvested at an earlier time point. Control mice were injected with saline BID.

[2] = tested on: S2013, a highly metastatic pancreatic cancer cell line; assay: Orthotopic mouse model of pancreatic cancer (21 day dosing study); assay type: in vivo, mice; conditions: 0.42 mg/kg i.p. for 21 d; FIG. 16
Protocol: 1×10^6 Cells of S2013, a highly metastatic pancreatic cancer cell line, were suspended in matrigel and injected into the tail of the pancreas of 4-6 week old female nude mice. Seven days post-cell implantation, mice were injected intraperitoneally with 0.42 mg/kg of compound 1 for 21 d. Treatment was stopped after 21 d, and mice sacrificed. Tumor samples, if any, were harvested from these mice, and tumor weight and volume measured. If tumor burden exceeded University of Minnesota animal care guidelines, mice were sacrificed and their tumors harvested at an earlier time point. Control mice were injected with saline QD.

[3] = Tris buffer (pH 7.4) and Borate buffer (pH 7.4), room temperature
[4] = tested on: Pancreatic cancer cells (MiaPaca-2, Panc-1, S2VP10); assay: Comparative in vitro cell viability (Dojindo Cell Counting Kit-8); conditions: 50 to 200 nmol/L, 24 and 48 hours; prodrug with alkaline phosphatase; FIG. 4-6
MiaPaca-2 cells = assay: Comparative in vivo study, orthotopic MiaPaca-2 pancreatic tumor in nude mice; conditions: i.p. daily 60 days
Protocol: Thirty nude mice of the strain athymic nu/nu were obtained from National Cancer Institute (NCI) (Rockville, Md.) and kept in a RAR facility. The mice were anaesthetized in accordance with the recommendations of the RAR facility using ketamine 75-200 mg/kg and xylazine 4-8 mg/kg. A small incision 3 mm was made on the left side of the abdominal wall and the spleen was pulled out with forceps far enough to expose and access the pancreas. MiaPaca-2 cell medium was prepared and kept on ice until delivery into the mice. Into each of the mice, 1 million MiaPaca-2 cells suspended in MATRIGEL™ (available from Becton-Dickinson Corporation, Franklin Lakes, N.J.) was injected into the tail of the pancreas (identified by its anatomical attachment with the spleen) using a Hamilton syringe. Following delivery of the cells, the syringe was held steady for an additional 5-10 seconds to permit the MATRIGEL™ to set. The spleen was replaced back into the abdominal cavity, and the abdominal wall was closed by vicryl suture in a continuous manner. The skin was apposed and closed using wound clips. The mice were then transferred to a heating pad until fully recovered before being returned to the cage. Post-operative pain medication (buprenonorphine 0.1 mg/kg) was administered intraperitoneally immediately after full recovery from anaesthesia to prevent respiratory depression and then administered every 12 hours for 2 days. The wound clips were removed from the mice after 7 days of surgery.
The mice were then randomized into 3 groups, each group having 10 mice. The groups were as follows: control group, triptolide group and the triptolide prodrug (compound 1) group. The control group consisted of mice that were injected intraperitoneally with vehicle DMSO.
The triptolide group subjects were injected with 0.2 mg/kg of triptolide dissolved in DMSO and diluted with phosphate buffered saline to a volume of 100 the intraperitoneal injections being daily over a period of 60 days. The compound 1 subjects were intraperitoneally injected daily for 60 days with 0.28 mg/kg of the compound dissolved in phosphate buffered saline diluted to a volume of 100 μl.
The mice were euthanized under anaesthesia at the conclusion of the 60 day treatments. Samples were collected (blood, lung, spleen, liver, kidneys and tumor tissue), and tumor volume and weight were measured and compared among the different groups. Observations were made on the loco-regional growth and cancer growth.

MIA PaCa-2 cells = assay: Orthotopic mouse model of pancreatic cancer (60 day dosing study); assay type: in vivo, mice; conditions: i.p. 60 d, compound 1 0.1-0.9 mg/kg; for survival versus vehicle: triptolide 0.2 mg/kg QD, observed another 28 d, FIG. 13, 14
Protocol: MIA PaCa-2 cells (1×10^6) were suspended in matrigel and injected into the tail of the pancreas of 4-6 week old female nude mice. Ten days post-cell implantation, mice were injected intraperitoneally with indicated concentrations of compound 1 (0.1, 0.15, 0.3, 0.6 or 0.9 mg/kg) or 0.2 mg/kg Triptolide QD for 60 d. Control mice were injected with saline BID. […] Tumor samples, if any, were harvested from these mice, and tumor weight and volume measured. If tumor burden exceeded University of Minnesota animal care guidelines, mice were sacrificed at earlier time points and their tumors harvested.

Neuroblastoma N2 cells = assay: Orthotopic mouse model of neuroblastoma; assay type: in vivo; conditions: 0.4 mg/kg i.p. for 21 days, A/J immunocompetent mice; FIG. 18
Protocol: Neuroblastoma N2 cells (1×10^6) were suspended in matrigel and injected into the left retroperitoneal space of 4-6 week old A/J immunocompetent mice. Three days post-cell implantation, mice were injected with 0.4 mg/kg of triptolide intraperitoneally for 21 days. Treatment was stopped at this point, and mice sacrificed. Tumor samples, if any, were harvested from these mice, and tumor weight and volume measured. If tumor burden exceeded University of Minnesota animal care guidelines, mice were sacrificed and their tumors harvested at an earlier time point. Control mice were injected with DMSO for 21 days.

caspase-3 = assay: Caspase-3 activity in neuroblastoma cells; assay type: cell-based; conditions: N2a and SKNSH cells; FIG. 20
Protocol: (§3) Neuroblastoma N2a and SKNSH cells were treated with triptolide, resulting in dose- and time-dependent cell killing in N2a, with more than 50% of cells killed with 62.5 nM triptolide at 24 hours and nearly 85% of cells killed with 250 nM triptolide at 48 hours (FIG. 19). To confirm the hypothesis that triptolide results in neuroblastoma cell death via an apoptotic pathway, caspase-3 activity was measured as a marker of apoptosis. In both cell lines, increases in caspase activity with higher doses of triptolide and longer duration of therapy.

Neuroblastoma N2a = assay: Neuroblastoma cell killing; assay type: cell-based
Protocol: as §3

[5] = triptolide 0.2 mg/kg, compound 1 0.28 mg/kg
[6] = pH 9.8, Alkaline Phosphatase, 37° C., read-out: Enzymatic Hydrolysis (t½), Alkaline Phosphatase, 37° C.

With `CC(C)[C@]12O[C@H]1[C@@H]1O[C@]13[C@]1(O[C@H]1C[C@H]1C4=C(CC[C@@]13C)C(=O)OC4)[C@@H]2OCOP(=O)(O)O` [Compound 1, 14-O-Phosphonooxymethyltriptolide Disodium Salt] the “time period in which the majority of conversion to triptolide took place” value [1] was at most 10 min, the half-life (alkaline phosphatase; alkaline phosphatase in glycine buffer (pH 9.8), first order fit, read-out: degradation half-life (t½)) was 2 min and the “tumor burden (tumor volume or tumor weight) versus control” value (SkChA-1 cells) was “decreased tumor burden”. For the same compound, the “tumor burden (tumor volume or tumor weight) versus control” value [2] was “decreased tumor burden”, the “degradation after 1 month” value [3] was “no degradation” and the pancreatic cell viability [4] was “significantly reduced”. For the same compound, the “pancreatic tumor growth inhibition vs untreated control” value (MiaPaca-2 cells; 0.28 mg/kg compound 1) was “considerable pancreatic tumor growth inhibition”, the “impact on body weight” value (MiaPaca-2 cells; [5]) was “no apparent significant impact” and the signs of toxicity (MiaPaca-2 cells; [5]) was “no apparent signs of toxicity”. For the same compound, the “tumor volume vs untreated control” value (MiaPaca-2 cells; [5]) was “significantly reduced”, the “tumor burden (tumor volume or tumor weight) versus control” value (MIA PaCa-2 cells; FIG. 15) was “decreased tumor burden” and the survival versus vehicle (MIA PaCa-2 cells) was “enhanced survival”.
`CC(O[C@@H]1[C@@]2(C(C)C)O[C@H]2[C@@H]2O[C@]23[C@]12O[C@H]2C[C@H]1C2=C(CC[C@@]13C)C(=O)OC2)OP(=O)(O)O` (stereo partly drawn) [Example 3, 14-O-Phosphonooxyethyltriptolide Disodium Salt] showed a half-life (alkaline phosphatase; [6]) of 9 min.
With `CCC(O[C@@H]1[C@@]2(C(C)C)O[C@H]2[C@@H]2O[C@]23[C@]12O[C@H]2C[C@H]1C2=C(CC[C@@]13C)C(=O)OC2)OP(=O)(O)O` (stereo partly drawn) [Example 4, 14-O-Phosphonooxypropyltriptolide Disodium Salt] the half-life (alkaline phosphatase; [6]) was 17 min.
In the case of `CC(C)[C@]12O[C@H]1[C@@H]1O[C@]13[C@]1(O[C@H]1C[C@H]1C4=C(CC[C@@]13C)C(=O)OC4)[C@@H]2O` [triptolide], the “tumor burden (tumor volume and tumor mass) versus control” value (Neuroblastoma N2 cells) is reported as “decreased tumor burden”, the pancreatic cell viability [4] is reported as “significantly reduced” and the “tumor volume vs untreated control” value (MiaPaca-2 cells; [5]) is reported as “significantly reduced”. The caspase-3 activity levels (caspase-3) was “dose- and time-dependent increases”, the cells killed (Neuroblastoma N2a; 62.5 nM, 24 hours) was “more than 50%” and the cells killed (Neuroblastoma N2a; 250 nM, 48 hours) was about 85%. The survival versus vehicle (MIA PaCa-2 cells) was “enhanced survival”.
